# US4425356A, “Lankacidin derivatives used in swine husbandry” (Takeda Chemical Industries, Ltd., priority 1980, dated 1984)
# Values joined by “and” are separate entries in the source; they are usually repeats but may differ in a detail not shown here. Equal entries are not always repeated. “Also recorded” adds a separate entry of the source. Where two headings read alike, the source gives them in different places.
# Experiments:
# Treponema hyodysenteriae = assay: in vitro antibacterial activity (MIC, agar dilution method), Test Examples 1-3; assay type: cell-based
# How it was run: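 MICs were found by agar dilution against field isolates from bloody mucous faeces of dysenteric pigs in Japan. The inoculum was a loopful of 10^6 CFU/ml suspension. Plates were incubated anaerobically (GasPak) at 37 °C.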
# [1] = acute toxicity tests with mice; conditions: mouse, in vivo
# Source text: The toxicity of compound (I) in animals is very low.
# [2] = test system: Treponema hyodysenteriae 78/A strain; assay: efficacy against swine dysentery under experimental infection conditions in pigs (drug in feed), Test Examples 5-7; assay type: in vivo, Landrace pigs; conditions: for Number of days on which diarrhea was observed / Number of days on which mucous bloody stool was observed / Number of pigs showing signs of infection/number of pigs used: 21-day test period; for Body weight gain / Feed conversion / Feed intake: 21 day period; for Body weight gain / Feed conversion / Feed intake / Body weight at the time of completion of test: mean per head
# How it was run: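 Landrace pigs, 4 per group, fed starter feed with drug admixed (100 ppm or lower; 10 ppm for lankacidin A and C 14-propionate) ad libitum; infected at 7 weeks after 24 h fast by 100 ml intragastric inoculum of two-fold diluted colonic contents/mucosa from 78/A-infected pigs. Fed 21 days post-infection; per-head means to autopsy.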
# [3] = test system: Treponema hyodysenteriae 78/A strain; assay: therapeutic administration in pigs showing clinical signs of swine dysentery, Test Examples 8-9; assay type: in vivo; conditions: for No. of pathogen (in feces) / Condition of feces: individual pig
# Description: This test was conducted under the conditions of so-called therapeutic administration. […] The method of infection was the same as in Test Example 5. […] Simultaneously with showing of the signs, the pigs were provided with a feed containing 50 ppm of lankacidin C. […] After 2 days, the viable count for the pathogen in feces was below the detection limit (10^2 CFU/g).
# The condition of feces was rated at one of the following four classes:
# .circle. normal; loose; diarrheal; .circleincircle. mucous and bloody
# count is below the detection limit (10^2 CFU/g).
# The symbol * indicates those days on which the feed containing 50 ppm of
# lankacidin C was given.
# Lankacidins were tested for therapeutic effects in swine dysentery under therapeutic conditions in the same manner as in Test Example 8. The effects were judged based on the condition of feces.
# The condition of feces was rated at one of the following four classes;
# The symbol * indicates the days on which the feed containing 50 ppm of th
# [4] = 50 ppm in feed, autopsy 15 days after manifestation of signs
structure (smiles),measurement,setting,value
"CC(=O)C(=O)NC1C=C(C)C=CC(O)CC=C(C)C=CC(O)CC2OC(=O)C1(C)C(=O)C2C (centres unmarked) [Lankacidin C, lankacidin C]",MIC,"Treponema hyodysenteriae; Brachyspira hyodysenteriae, 48 h, read-out: Minimum Inhibitory Concentration, strain DJ70P1, 37° C., 2 days, anaerobic",3.13 µg/mL
same,in vitro antibacterial activity (in words),Treponema hyodysenteriae; against Treponema hyodysenteriae,strong antibacterial activity
same,LD50,"[1]; ip, intraperitoneal, read-out: intraperitoneal LD50",4500 mg/kg
same,LD50,"[1]; oral, read-out: oral LD50",> 10000 mg/kg
same,"Number of pigs from which the pathogen was detected, in colonic mucosa",[2]; 10 ppm in feed,0
same,"Number of pigs from which the pathogen was detected, in feces",[2]; 10 ppm in feed,0
same,Number of pigs showing colonic lesions,[2]; 10 ppm in feed,0
same,Number of days on which diarrhea was observed,[2]; 10 ppm in feed,0 days
same,Number of days on which mucous bloody stool was observed,[2]; 10 ppm in feed,0 days
same,Number of pigs showing signs of infection/number of pigs used,[2]; 10 ppm in feed,0/4
same,Body weight gain,[2]; 10 ppm in feed,484 grams/day
same,Feed conversion,[2]; 10 ppm in feed,1.81
same,Feed intake,[2]; 10 ppm in feed,18.4 kg
same,Body weight at the time of completion of test,[2]; 10 ppm in feed,20.7 kg
same,"Number of pigs from which the pathogen was detected, in colonic mucosa",[2]; 50 ppm in feed,0
same,"Number of pigs from which the pathogen was detected, in feces",[2]; 50 ppm in feed,0
same,Number of pigs showing colonic lesions,[2]; 50 ppm in feed,0
same,Number of days on which diarrhea was observed,[2]; 50 ppm in feed,0 days
same,Number of days on which mucous bloody stool was observed,[2]; 50 ppm in feed,0 days
same,Number of pigs showing signs of infection/number of pigs used,[2]; 50 ppm in feed,0/4
same,Body weight gain,[2]; 50 ppm in feed,673 grams/day
same,Feed conversion,[2]; 50 ppm in feed,1.79
same,Feed intake,[2]; 50 ppm in feed,25.3 kg
same,Body weight at the time of completion of test,[2]; 50 ppm in feed,25.3 kg
same,"Number of pigs from which the pathogen was detected, in colonic mucosa",[2]; 100 ppm in feed,0
same,"Number of pigs from which the pathogen was detected, in feces",[2]; 100 ppm in feed,0
same,Number of pigs showing colonic lesions,[2]; 100 ppm in feed,0
same,Number of days on which diarrhea was observed,[2]; 100 ppm in feed,0 days
same,Number of days on which mucous bloody stool was observed,[2]; 100 ppm in feed,0 days
same,Number of pigs showing signs of infection/number of pigs used,[2]; 100 ppm in feed,0/4
same,Body weight gain,[2]; 100 ppm in feed,708 grams/day and 689 grams/day
same,Feed conversion,[2]; 100 ppm in feed,1.85 and 1.77
same,Feed intake,[2]; 100 ppm in feed,27.5 kg and 25.6 kg
same,Body weight at the time of completion of test,[2]; 100 ppm in feed,28.5 kg and 25.5 kg
same,effect against swine dysentery (in words),"[2]; pig, in vivo",excellent effect against swine dysentery; also recorded: more excellent anti-swine-dysentery agent than carbadox
same,therapeutic effect in swine dysentery (in words),[3]; 50 ppm in feed,therapeutically effective
same,viable count for the pathogen in feces,"[3]; 50 ppm in feed, after 2 days",< 10^2 CFU/g
same,colonic lesions (autopsy),[3]; [4],negative
same,pathogen at autopsy (in words),[3]; [4],without the pathogen being detected
same,colonic lesions (autopsy),"[3]; 50 ppm in feed, autopsy 15 days after manifestation of signs, listed as lankacidin C",no colonic lesions
same,No. of pathogen (in feces),"[3]; 50 ppm in feed, day 0",8.0 log/g and 6.0 log/g and 7.1 log/g and 6.8 log/g
same,No. of pathogen (in feces),"[3]; 50 ppm in feed, day 1",4.3 log/g and 2.3 log/g and 4.4 log/g and 2.0 log/g
same,mucous bloody diarrhea / passage (in words),"[3]; 50 ppm in feed, day following the administration",mucous bloody diarrhea was no more observed on the day following the administration but the passage was loose or normal
same,Condition of feces,"[3]; Table 8, 50 ppm in feed days 0-6, day 7",.circle.
same,Condition of feces,"[3]; Table 8, 50 ppm in feed days 0-6, day 8",.circle.
same,Condition of feces,"[3]; Table 8, 50 ppm in feed days 0-6, day 9",.circle.
same,Condition of feces,"[3]; Table 8, 50 ppm in feed days 0-6, day 10",.circle.
same,Condition of feces,"[3]; Table 8, 50 ppm in feed days 0-6, day 11",.circle.
same,Condition of feces,"[3]; Table 8, 50 ppm in feed days 0-6, day 12",.circle.
same,Condition of feces,"[3]; Table 8, 50 ppm in feed days 0-6, day 13",.circle.
same,Condition of feces,"[3]; Table 8, 50 ppm in feed days 0-6, day 14",.circle.
same,Condition of feces,"[3]; Table 8, 50 ppm in feed days 0-6, day 15",.circle.
same,Condition of feces,"[3]; Table 8, 50 ppm in feed, day 0 after manifestation of signs",.circleincircle.
same,Condition of feces,"[3]; Table 8, 50 ppm in feed, day 1",.circle.
same,Condition of feces,"[3]; Table 8, 50 ppm in feed, day 2",.circle.
same,Condition of feces,"[3]; Table 8, 50 ppm in feed, day 3",.circle.
same,Condition of feces,"[3]; Table 8, 50 ppm in feed, day 4",.circle.
same,Condition of feces,"[3]; Table 8, 50 ppm in feed, day 5",.circle.
same,Condition of feces,"[3]; Table 8, 50 ppm in feed, day 6",.circle.
same,Condition of feces,"[3]; Table 9, 50 ppm in feed, day 0 after manifestation of signs",.circleincircle.
same,Condition of feces,"[3]; Table 9, 50 ppm in feed, day 1",.circle.
same,Condition of feces,"[3]; Table 9, 50 ppm in feed, day 2",.circle.
same,Condition of feces,"[3]; Table 9, 50 ppm in feed, day 3",.circle.
same,Condition of feces,"[3]; Table 9, 50 ppm in feed, day 4",.circle.
same,Condition of feces,"[3]; Table 9, 50 ppm in feed, day 5",.circle.
